How the values were obtained:
[1] = mn = molality of the nth substance listed, in mol/kg; settings: 101 kPa, Liquid; for speed of sound: Frequency=3 MHz, Sing-around technique in a fixed-path interferometer; for mass density: Vibrating tube method
[2] = 101 kPa, Liquid, Vibrating tube method

OC[C@H]1O[C@@](CO)(O[C@H]2O[C@H](CO)[C@@H](O)[C@H](O)[C@H]2O)[C@@H](O)[C@@H]1O [D-sucrose] + O
[1]
Settings | mass density, 288.15 K [kg/m3] | mass density, 293.15 K [kg/m3] | mass density, 298.15 K [kg/m3] | mass density, 303.15 K [kg/m3] | mass density, 308.15 K [kg/m3] | speed of sound, 288.15 K [m/s] | speed of sound, 293.15 K [m/s] | speed of sound, 298.15 K [m/s] | speed of sound, 303.15 K [m/s] | speed of sound, 308.15 K [m/s]
m1 = 0.05 | 1006.43 | 1005.42 | 1004.16 | 1002.72 | 1001.27 | 1471.5 | 1487.4 | 1501.4 | 1513.5 | 1523.7
m1 = 0.15 | 1019 | 1017.99 | 1016.73 | 1015.24 | 1013.54 | 1481 | 1496.3 | 1509.9 | 1521.7 | 1531.8
m1 = 0.25 | 1030.99 | 1029.9 | 1028.58 | 1026.97 | 1025.28 | 1490.7 | 1505.7 | 1518.9 | 1530.3 | 1539.9
m1 = 0.35 | 1042.86 | 1041.71 | 1040.32 | 1038.71 | 1036.92 | 1500.5 | 1515 | 1527.7 | 1538.7 | 1548.2

O [water]
[2]
Settings | mass density [kg/m3]
288.15 K | 999.591
293.15 K | 998.551
298.15 K | 997.255
303.15 K | 995.775
308.15 K | 994.329
